In assay [1] the target is T1, Solute carrier family 15 member 1 (Mus musculus) (UniProt Q9JIP7).
T1 sequence (whole entry): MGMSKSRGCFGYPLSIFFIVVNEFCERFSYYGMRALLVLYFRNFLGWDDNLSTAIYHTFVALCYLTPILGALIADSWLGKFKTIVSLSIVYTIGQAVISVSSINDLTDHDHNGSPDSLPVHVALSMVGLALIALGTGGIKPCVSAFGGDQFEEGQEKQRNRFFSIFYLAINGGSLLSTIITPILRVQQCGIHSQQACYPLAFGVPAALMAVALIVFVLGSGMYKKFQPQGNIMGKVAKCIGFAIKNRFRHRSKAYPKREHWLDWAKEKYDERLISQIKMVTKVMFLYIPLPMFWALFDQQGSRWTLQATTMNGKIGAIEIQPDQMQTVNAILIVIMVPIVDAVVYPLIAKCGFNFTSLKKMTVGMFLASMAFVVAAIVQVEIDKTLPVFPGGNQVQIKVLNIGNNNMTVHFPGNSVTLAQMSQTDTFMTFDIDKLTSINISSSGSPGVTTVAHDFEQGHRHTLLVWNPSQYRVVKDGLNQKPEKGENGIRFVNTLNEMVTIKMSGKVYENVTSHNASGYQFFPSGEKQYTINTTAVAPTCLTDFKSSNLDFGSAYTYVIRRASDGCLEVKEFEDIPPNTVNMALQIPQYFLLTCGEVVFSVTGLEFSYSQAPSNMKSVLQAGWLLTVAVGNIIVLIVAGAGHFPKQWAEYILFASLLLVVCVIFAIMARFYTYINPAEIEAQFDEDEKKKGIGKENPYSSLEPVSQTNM
The experiment in a line: TP_TRANSPORTER: uptake in Xenopus laevis oocytes. The class given is functional, cell-based. Particulars: Oocyte.

Assay [2] deals with T1, Solute carrier family 15 member 1 (Mus musculus). Kind of assay: TP_TRANSPORTER: uptake in PEPT1-expressing HRPE cells. In kind it is functional, cell-based.

For one compound, Activity results are on record in ChEMBL document CHEMBL2074516, “cDNA structure, genomic organization, and promoter analysis of the mouse intestinal peptide transporter PEPT1” (Biochim Biophys Acta, 2000).

Where a SMILES comes first, the peptide text is derived from it. [ ]: non-standard residue; d: D form. Sar = CNCC(=O)O

As for `CN(CC(=O)O)C(=O)CN` (H-Gly-[Sar]-OH), the Activity result in assay [1] and in assay [2] was “substrate [+]” throughout.
